# Data: ChEMBL document CHEMBL1201862, “PubChem BioAssay data set” (2004)
# Active and inactive are the calls of the source.
# How the values were obtained:
# HEK293 = experiment: EBV LMP1 TES2 canonical NF-kB signalling blockers – cell-based, HEK293, luciferase, cherry-pick, dose response (AID 588343); assay type: functional; details: Homo sapiens
# [1] = target: T1, Nuclear receptor subfamily 0 group B member 1 (Homo sapiens, UniProt P51843); assay type: functional, cell-based;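 note: HEK293T cells transfected with SF-1 and DAX-1 plus StAR promoter luciferase reporter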
# T1 sequence (P51843 whole entry): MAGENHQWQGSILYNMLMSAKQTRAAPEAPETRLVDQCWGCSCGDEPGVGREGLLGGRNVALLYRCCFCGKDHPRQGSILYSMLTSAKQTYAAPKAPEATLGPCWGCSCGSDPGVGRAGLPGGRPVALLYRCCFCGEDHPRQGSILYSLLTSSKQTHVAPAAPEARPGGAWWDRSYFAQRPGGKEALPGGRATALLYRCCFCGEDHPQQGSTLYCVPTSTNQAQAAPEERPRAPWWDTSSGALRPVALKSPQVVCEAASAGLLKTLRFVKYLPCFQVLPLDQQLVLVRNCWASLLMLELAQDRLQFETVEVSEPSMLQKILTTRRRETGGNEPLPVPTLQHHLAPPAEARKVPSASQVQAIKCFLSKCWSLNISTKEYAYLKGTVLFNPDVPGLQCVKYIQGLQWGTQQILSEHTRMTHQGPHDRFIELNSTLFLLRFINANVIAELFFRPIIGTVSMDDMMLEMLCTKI
# cells [2] = assay type: functional, cell-based
# [3] = inhibition of ADAM10 peptide cleavage – biochemical, FRET peptide substrate, recombinant human ADAM10, selectivity assay for ADAM17 exosite inhibitor project, dose response (AID 743259);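 note: ADAM10 enzyme cleaving a FRET peptide substrate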
# cells [4] = assay type: functional, cell-based; remark: listed apart in the source
# cells [5] = assay type: functional, cell-based; remark: listed apart in the source
# [6] = target: T2, Heat shock factor protein 1 (Mus musculus, UniProt P38532); experiment: decrease of HSF1-responsive luciferase luminescence – cell-based, NIH3T3, dose retest, confirmation (AID 2382); assay type: functional;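 note: NIH3T3 fibroblasts with HSF1-driven luciferase reporter stressed by proteasome inhibitor MG132; luminescence from HSF1-driven luciferase expression after 8 hours of MG132 stress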
# T2 sequence (P38532 whole entry): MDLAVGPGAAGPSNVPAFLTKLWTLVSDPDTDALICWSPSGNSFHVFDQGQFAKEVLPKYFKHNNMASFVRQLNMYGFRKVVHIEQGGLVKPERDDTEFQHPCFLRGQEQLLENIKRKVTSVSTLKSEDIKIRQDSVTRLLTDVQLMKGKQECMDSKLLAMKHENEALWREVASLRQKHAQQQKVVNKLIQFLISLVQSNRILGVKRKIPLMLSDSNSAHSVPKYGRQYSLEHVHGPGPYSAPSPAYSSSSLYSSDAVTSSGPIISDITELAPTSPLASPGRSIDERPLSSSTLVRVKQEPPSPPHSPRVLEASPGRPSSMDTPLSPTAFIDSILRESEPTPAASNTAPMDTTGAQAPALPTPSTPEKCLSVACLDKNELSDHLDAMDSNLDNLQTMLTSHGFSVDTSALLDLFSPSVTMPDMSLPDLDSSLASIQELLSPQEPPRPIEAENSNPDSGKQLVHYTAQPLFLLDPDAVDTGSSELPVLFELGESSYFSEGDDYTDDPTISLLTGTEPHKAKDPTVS
# cells [7] = assay type: functional, cell-based; remark: listed apart in the source
# cells [8] = assay type: functional, cell-based; remark: listed apart in the source
# fMet-Leu-Phe receptor = target: T3, fMet-Leu-Phe receptor (Homo sapiens, UniProt P21462); experiment: formyl peptide receptor binders – dose response (AID 519); assay type: functional
# T3 sequence (P21462 whole entry): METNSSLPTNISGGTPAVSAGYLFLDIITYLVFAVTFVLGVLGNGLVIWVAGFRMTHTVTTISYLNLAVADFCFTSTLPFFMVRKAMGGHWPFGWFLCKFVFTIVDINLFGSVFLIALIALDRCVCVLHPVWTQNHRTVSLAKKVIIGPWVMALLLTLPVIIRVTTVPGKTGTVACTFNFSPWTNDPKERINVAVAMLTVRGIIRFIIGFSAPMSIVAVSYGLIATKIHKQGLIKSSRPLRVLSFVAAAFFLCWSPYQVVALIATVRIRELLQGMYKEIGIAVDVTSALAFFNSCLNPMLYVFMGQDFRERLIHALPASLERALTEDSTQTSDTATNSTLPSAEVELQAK
# [9] = target: SWI/SNF-related matrix-associated actin-dependent regulator of chromatin subfamily A member 2 (Homo sapiens, UniProt P51531); experiment: Luminescence-based cell-based high throughput dose response assay to identify activators of the function of SWI/SNF related, matrix associated, actin dependent regulator of chromatin, subfamily a, member 2 (SMARCA2, BRM).; assay type: functional
# SWI/SNF-related matrix-associated actin-dependent regulator of chromatin subfamily A member 2, sequence (P51531 whole entry): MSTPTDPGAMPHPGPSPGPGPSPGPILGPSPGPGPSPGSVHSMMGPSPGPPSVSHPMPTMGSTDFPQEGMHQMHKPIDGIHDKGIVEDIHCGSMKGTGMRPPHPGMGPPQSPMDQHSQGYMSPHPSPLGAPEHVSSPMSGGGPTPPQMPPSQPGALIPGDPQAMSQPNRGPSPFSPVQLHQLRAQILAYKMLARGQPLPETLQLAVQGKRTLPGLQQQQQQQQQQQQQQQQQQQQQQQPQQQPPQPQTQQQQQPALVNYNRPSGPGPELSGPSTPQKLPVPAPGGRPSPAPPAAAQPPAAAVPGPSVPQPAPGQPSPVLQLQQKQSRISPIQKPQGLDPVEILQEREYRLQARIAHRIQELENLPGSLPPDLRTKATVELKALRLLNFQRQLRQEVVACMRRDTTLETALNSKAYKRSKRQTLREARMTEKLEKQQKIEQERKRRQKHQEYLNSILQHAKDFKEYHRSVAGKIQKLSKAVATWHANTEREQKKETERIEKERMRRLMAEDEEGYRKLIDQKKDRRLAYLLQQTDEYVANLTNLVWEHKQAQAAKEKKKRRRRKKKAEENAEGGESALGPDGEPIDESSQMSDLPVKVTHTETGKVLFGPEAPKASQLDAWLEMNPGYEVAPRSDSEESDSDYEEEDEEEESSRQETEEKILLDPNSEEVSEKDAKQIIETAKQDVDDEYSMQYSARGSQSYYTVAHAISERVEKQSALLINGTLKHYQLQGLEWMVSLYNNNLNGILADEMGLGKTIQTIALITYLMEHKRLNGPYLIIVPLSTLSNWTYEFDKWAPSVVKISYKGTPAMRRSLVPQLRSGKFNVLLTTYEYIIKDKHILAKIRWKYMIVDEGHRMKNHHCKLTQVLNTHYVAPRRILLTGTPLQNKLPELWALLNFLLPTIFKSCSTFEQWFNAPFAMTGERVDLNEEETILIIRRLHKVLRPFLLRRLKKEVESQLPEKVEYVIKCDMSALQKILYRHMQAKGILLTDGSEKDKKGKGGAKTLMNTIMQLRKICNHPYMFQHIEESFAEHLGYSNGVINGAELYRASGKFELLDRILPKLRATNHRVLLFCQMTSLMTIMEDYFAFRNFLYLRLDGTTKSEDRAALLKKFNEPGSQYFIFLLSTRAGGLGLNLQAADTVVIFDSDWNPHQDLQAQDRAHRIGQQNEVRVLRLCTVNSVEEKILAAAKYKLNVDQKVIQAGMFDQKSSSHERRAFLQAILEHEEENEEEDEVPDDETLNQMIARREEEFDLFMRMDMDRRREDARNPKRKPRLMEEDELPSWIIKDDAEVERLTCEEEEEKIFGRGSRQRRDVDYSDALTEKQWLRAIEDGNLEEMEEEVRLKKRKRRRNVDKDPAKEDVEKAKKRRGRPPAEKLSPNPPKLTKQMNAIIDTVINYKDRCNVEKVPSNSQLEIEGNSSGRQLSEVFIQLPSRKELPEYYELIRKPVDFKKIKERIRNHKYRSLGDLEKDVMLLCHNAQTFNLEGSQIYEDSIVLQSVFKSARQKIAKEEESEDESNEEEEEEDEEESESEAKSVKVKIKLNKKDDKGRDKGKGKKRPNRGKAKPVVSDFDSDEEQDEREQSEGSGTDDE
# [10] = Counterscreen for activators of the function of SWI/SNF related, matrix associated, actin dependent regulator of chromatin, subfamily a, member 2 (SMARCA2, BRM): Luminescence-based cell-based high throughput dose response assay to identify non-selective compounds using the VP16 reporter assay.; assay type: functional
# [11] = target: T4, Adenosylmethionine-8-amino-7-oxononanoate aminotransferase (Mycobacterium tuberculosis, UniProt P9WQ81); experiment: Mycobacterium tuberculosis BioA enzyme inhibitor Measured in Biochemical System Using Plate Reader - 2163-02_Inhibitor_Dose_CherryPick_Activity.; assay type: functional, Mycobacterium tuberculosis UT205
# T4 sequence (P9WQ81 whole entry): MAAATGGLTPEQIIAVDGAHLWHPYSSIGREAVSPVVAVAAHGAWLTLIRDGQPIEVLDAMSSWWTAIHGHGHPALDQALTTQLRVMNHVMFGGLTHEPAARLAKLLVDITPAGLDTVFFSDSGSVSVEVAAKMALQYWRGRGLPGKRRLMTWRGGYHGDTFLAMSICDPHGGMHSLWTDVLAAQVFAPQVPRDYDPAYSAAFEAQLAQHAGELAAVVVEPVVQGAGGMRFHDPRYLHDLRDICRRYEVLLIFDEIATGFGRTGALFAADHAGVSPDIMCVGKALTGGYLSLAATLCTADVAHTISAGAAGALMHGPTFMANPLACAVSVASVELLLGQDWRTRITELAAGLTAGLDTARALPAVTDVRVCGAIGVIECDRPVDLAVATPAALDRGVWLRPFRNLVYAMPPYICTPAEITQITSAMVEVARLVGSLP
# [12] = alpha-synuclein stem-loop luciferase translation blockers – H4 neuroglioma cells, luminescence, confirmation (AID 1988); assay type: functional, cell-based
# [13] = Luminescence Cell-Based Dose Response HTS to Identify Inhibitors of 5'UTR Stem-Loop Driven Prion Protein mRNA Translation in H4 Neuroglioblastoma Cells. [Related pubchem assays: 1827 (Project Summary), 1813 (Primary HTS)]; assay type: functional
# [14] = luciferase reporter signal suppression in cells – H4 neuroglioma cells, luminescence, dose response (AID 1990); assay type: functional, cell-based
# [15] = viability loss in CEM21 cells – cell-based, CellTiter-Glo luminescence, cherry-picked, cytotoxicity control for viral fusion inhibitor project, dose response (AID 652042); assay type: functional;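 note: potency for signal decrease meaning cytotoxicity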
# [16] = blockers of HIV-1 envelope-mediated cell-cell fusion – cherry-pick, dose response (AID 652057); assay type: functional, cell-based
# [17] = blockers of HIV-1 ZM109 envelope-driven cell-cell fusion – HeLa effector, CEM target cells, luciferase, cherry-pick, dose response (AID 652058); assay type: functional, cell-based;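 note: luciferase signal from HIV-1 Env mediated cell-cell fusion of effector and target cells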
# [18] = HIV-1 AD8 envelope cell-cell fusion blockers – cherry-pick, dose response (AID 652062); assay type: functional, cell-based;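 note: luciferase signal from cell-cell fusion driven by HIV-1 clade B AD8 Env; potency is for inhibitors of fusion seen as a drop in luminescence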
# cells [19] = assay type: functional
# [20] = target: T5, Replicative DNA helicase DnaB (Mycobacterium tuberculosis, UniProt P9WMR3); experiment: DnaB intein splicing inhibitors, dose response, biochemical, cell-free fluorescence (AID 449749); assay type: functional
# T5 sequence (P9WMR3 whole entry): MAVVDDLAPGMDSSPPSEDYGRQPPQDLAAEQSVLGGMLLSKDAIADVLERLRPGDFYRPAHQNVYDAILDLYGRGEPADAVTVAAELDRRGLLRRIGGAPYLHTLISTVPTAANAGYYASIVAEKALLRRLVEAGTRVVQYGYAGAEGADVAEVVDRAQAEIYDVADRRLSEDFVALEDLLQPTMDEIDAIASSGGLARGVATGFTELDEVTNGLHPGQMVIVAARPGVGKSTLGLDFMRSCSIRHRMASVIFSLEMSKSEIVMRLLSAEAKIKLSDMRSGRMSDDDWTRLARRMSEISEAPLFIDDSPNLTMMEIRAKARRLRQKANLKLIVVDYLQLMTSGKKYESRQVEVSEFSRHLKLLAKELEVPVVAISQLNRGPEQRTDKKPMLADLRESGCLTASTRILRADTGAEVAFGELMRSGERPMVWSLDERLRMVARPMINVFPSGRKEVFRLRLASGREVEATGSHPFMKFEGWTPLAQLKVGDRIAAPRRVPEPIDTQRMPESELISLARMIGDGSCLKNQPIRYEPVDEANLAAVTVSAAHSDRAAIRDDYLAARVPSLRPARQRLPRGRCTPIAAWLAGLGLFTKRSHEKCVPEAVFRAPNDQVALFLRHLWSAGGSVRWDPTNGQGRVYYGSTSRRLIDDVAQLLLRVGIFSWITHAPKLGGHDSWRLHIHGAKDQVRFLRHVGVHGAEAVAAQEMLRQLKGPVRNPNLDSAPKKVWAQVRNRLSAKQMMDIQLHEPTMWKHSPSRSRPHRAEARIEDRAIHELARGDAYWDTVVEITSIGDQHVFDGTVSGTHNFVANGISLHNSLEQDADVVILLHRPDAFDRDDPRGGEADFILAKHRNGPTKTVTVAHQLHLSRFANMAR
# Protein RecA = target: T6, Protein RecA (Mycobacterium tuberculosis, UniProt P9WHJ3); experiment: Fluorescence Cell-Free Homogeneous Dose Retest to Identify Inhibitors of RecA-Intein Splicing Activity. [Related pubchem assays (depositor defined):AID2097, AID2223, AID489010, AID492950]; assay type: functional
# T6 sequence (P9WHJ3 whole entry): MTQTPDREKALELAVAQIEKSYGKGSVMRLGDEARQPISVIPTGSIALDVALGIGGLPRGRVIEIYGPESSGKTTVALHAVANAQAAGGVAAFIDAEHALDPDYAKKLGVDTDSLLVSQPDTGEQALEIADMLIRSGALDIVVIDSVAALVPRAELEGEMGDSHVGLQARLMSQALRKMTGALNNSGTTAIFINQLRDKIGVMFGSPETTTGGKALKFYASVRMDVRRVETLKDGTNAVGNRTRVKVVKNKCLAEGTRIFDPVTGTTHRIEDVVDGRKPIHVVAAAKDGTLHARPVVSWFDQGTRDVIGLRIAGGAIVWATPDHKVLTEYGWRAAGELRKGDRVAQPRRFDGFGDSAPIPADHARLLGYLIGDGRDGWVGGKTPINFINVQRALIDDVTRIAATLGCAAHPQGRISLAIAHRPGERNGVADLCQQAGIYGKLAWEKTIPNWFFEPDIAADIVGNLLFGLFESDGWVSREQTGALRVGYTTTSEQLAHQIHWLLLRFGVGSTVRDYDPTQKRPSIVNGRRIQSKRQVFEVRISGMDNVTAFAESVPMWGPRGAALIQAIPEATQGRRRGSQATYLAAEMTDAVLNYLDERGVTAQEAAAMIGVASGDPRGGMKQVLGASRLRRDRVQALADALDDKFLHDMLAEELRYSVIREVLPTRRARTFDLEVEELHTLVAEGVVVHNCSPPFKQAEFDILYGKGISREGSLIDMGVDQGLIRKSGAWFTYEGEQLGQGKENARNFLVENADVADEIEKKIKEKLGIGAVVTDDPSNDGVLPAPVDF
# [21] = target: T7, Mannose-6-phosphate isomerase (Homo sapiens, UniProt P34949); experiment: MPI inhibition at elevated mannose 6-phosphate – biochemical, fluorescence intensity, high mannose 6-phosphate, primary screen (AID 1220)
# T7 sequence (P34949 whole entry): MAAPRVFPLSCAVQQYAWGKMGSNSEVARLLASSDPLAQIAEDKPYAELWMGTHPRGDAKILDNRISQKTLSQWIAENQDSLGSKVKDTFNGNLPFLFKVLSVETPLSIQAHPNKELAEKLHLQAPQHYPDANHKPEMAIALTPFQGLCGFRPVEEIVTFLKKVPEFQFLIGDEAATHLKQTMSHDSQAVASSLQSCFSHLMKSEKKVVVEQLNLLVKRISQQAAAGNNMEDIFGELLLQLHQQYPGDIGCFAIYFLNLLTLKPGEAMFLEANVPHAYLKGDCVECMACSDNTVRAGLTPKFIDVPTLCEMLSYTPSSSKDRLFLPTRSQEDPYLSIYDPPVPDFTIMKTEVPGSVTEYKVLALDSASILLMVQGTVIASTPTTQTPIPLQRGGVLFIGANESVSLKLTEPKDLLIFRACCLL
# [22] = Vero E6 cell cytotoxicity, dose response, cytotoxicity control for non-replicating M. tuberculosis project, secondary assay (AID 492998); assay type: functional, VeroE6; details: Vero C1008
compound,measurement,setting,value
CC(C)Oc1ccc(C(=O)Nc2nnc(SCC(=O)N3CCOCC3)s2)cc1,AC50,HEK293,0.897 µM (active)
same,IC50,[1],> 67.5 µM (inactive)
same,IC50,cells [2],> 67.5 µM (inactive)
C[C@H](NC(=O)c1[nH]cnc1C(=O)NC(c1ccccc1)c1ccccc1)C(=O)OCc1ccccc1,IC50,[3],> 69.5 µM (inactive)
COc1ccc(C2NC(S)=NC3=C2CCCC3=C2SCCS2)cc1 (configuration not stated),IC50,[1],7.9 µM (active)
same,IC50,cells [2],> 67.5 µM (inactive)
same,EC50,cells [4],> 350 µM (not active)
same,EC50,cells [5],10.6 µM (active)
same,EC50,[6],> 195 µM (not active)
c1ccc(CCN2CN(CCCN3CCOCC3)c3nc4ccccc4n3C2)cc1,EC50,cells [7],> 29.9 µM (inactive)
same,IC50,cells [8],> 29.9 µM (inactive)
COc1cccc(-c2nc(CS(=O)(=O)CC(=O)NCCC(C)C)c(C)o2)c1,Ki,fMet-Leu-Phe receptor,> 66.7 µM (inactive)
CCN(CC)c1ccc2cc(C(=O)c3cccs3)c(=O)oc2c1,EC50,[9],> 91 µM (inactive)
same,EC50,[10],> 91 µM (inactive)
same,AC50,[11],0.195 µM (active)
Cc1c(C(=O)OCC(C)C)[nH]c2c1C(=O)CC(c1ccco1)C2 (configuration not stated),IC50,[1],> 67.5 µM (inactive)
same,EC50,[12],0.212 µM (active)
same,IC50,cells [2],> 67.5 µM (inactive)
same,EC50,[13],1.5 µM (active)
same,EC50,[14],1.95 µM (active)
Cc1ccc(F)c(NC(=O)C2CCCCC2C(=O)O)c1 (configuration not stated),Ki,fMet-Leu-Phe receptor,> 66.7 µM (inactive)
O=C(C[C@H]1C=C[C@@H](NC(=O)c2cccc(F)c2)[C@@H](CO)O1)NCc1ccc(Oc2ccccc2)cc1,AC50,[15],46.3 µM (active)
same,AC50,[16],0.988 µM (active)
same,AC50,[17],0.725 µM (active)
same,AC50,[18],2.83 µM (active)
CCOC(=O)C(Nc1ccc2ccccc2c1)C(=O)OCC,IC50,cells [19],4.41 µM (active)
same,AC50,[20],5.7 µM (active)
same,EC50,Protein RecA,13 µM (active)
same,IC50,[21],> 50 µM (not active)
same,EC50,[9],> 91.2 µM (inactive)
same,EC50,[10],> 91.2 µM (inactive)
same,CC50,[22],> 20 µM (active)
